Source: US20240401146A1, “METHODS FOR PREDICTING AND IMPROVING THE EFFICACY OF MCL-1 INHIBITOR THERAPY” (INSTITUT NATIONAL DE LA SANTÉ ET DE LA RECHERCHE MÉDICALE, priority 2021, published 2024)
Read-outs that look alike come from different tables or passages of the source.

Columns and labels:
[1] = tested on: SUDHL-4 cells (BTG1 KO, BTG1 WT); conditions: SUDHL-4 BTG1 KO versus BTG1 WT; 72 h exposure; 0 or 50 nM; FIG. 3C
Procedure: (§1) TMD8 and SUDHL-4 were grown in Roswell Park Memorial Institute medium, GlutaMAX Supplement ([…], Thermofisher), supplemented with 10% FBS, 1% penicillin G/streptomycin. Cells were grown in incubators at 37 C, in a 5% CO2 atmosphere.
(§2) TMD8 and SUDHL-4 cells expressing cas9 were generated by transduction with lentiV-Cas9-blast virus (Addgene #125592, Massachusetts, USA), and selected with 2.5 μg/ml blasticidin for 7 days. […] Cells were selected with puromycin for 7 days, and GFP expression was evaluated with flow cytometry. BTG1 inactivation was validated by Western Blotting after 1 week. BTG1 rescue cell were derived from TMD8 BTG1 KO cells infected with murine BTG1 cDNA (100% protein homology with human) in a mcherry-HIV-based virus. GFP and mcherry positive cells were sorted on a FACS ARIA™ cell sorter (BD biosciences, San Jose, CA).
(§3) The high affinity MCL-1 specific inhibitor S63845 (Kotschy et al., 2016) was purchased from Selleck Chemical (München, Germany). For in vitro study, it was dissolved in DMSO at a concentration of lmmol/L. DMSO was also used as a vehicle control in the in vitro study. For cell viability assessment, 100 000 cells were seeded in 24 well plate and incubated for 72 h with either S63845 or DMSO. Culture medium was used for further dilutions (typically 5 and 50 nM). For cell viability assessment, cells were stained with Annexin V-APC and propidium iodide, analyzed on a FACS LSRII™ (BD biosciences, San Jose, CA).

[2] = tested on: TMD8 cells (BTG1 KO, WT, rescue, mutated rescues); conditions: 72 h exposure, 0 or 50 nM, FIG. 3B
Procedure: as §1, §2, §3

Q: Which “Proportion of apoptotic cells (Annexin V staining)” value [1] does the source give for `Cc1c(-c2c(-c3ccc(F)o3)sc3ncnc(O[C@H](Cc4ccccc4OCc4ccnn4CC(F)(F)F)C(=O)O)c23)ccc(OCCN2CCN(C)CC2)c1Cl` [S63845] here?
A: confirmed the link between BTG1 inactivation and sensitivity to MCL-1

Q: And the “Increased sensitivity to MCL-1 inhibitor (proportion of apoptotic cells, Annexin V staining)” value ([2]; TMD8 BTG1 KO rescued with BTG1 WT)?
A: abolished by the expression of BTG1 WT

Q: And the “Increased sensitivity to MCL-1 inhibitor (proportion of apoptotic cells, Annexin V staining)” value ([2]; TMD8 BTG1 KO rescued with mutated BTG1 (L26P, G66D or I115V))?
A: not by the expression of mutated BTG1

Q: And the “Proportion of apoptotic cells (Annexin V staining)” value ([2]; TMD8 BTG1 KO versus BTG1 WT)?
A: induces significantly more apoptosis
